In ChEMBL document CHEMBL4616598 (Bioorg Med Chem, 2020):

How the values were obtained:
[1] = biological target: 5-hydroxytryptamine receptor 7 (Homo sapiens, UniProt P34969); test: Displacement of [3H]-5-carboxamidotryptamine from human 5-HT7A receptor expressed in HEK293 cell membranes incubated for 90 mins by scintillation counting method
Homo sapiens = species: Homo sapiens; test: Selectivity ratio of Ki for displacement of [3H]-5-carboxamidotryptamine from human 5-HT1A receptor expressed in HEK293T cell membranes to Ki for displacement of [3H]-5-carboxamidotryptamine from human 5-HT7 receptor expressed in HEK293 cell membranes
[2] = biological target: T1, 5-hydroxytryptamine receptor 1A (Homo sapiens, UniProt P08908); test: Displacement of [3H]-5-carboxamidotryptamine from human 5-HT1A receptor expressed in HEK293T cell membranes incubated for 90 mins by scintillation counting method; parameters: species or system HEK-293T
T1 sequence (P08908 whole entry): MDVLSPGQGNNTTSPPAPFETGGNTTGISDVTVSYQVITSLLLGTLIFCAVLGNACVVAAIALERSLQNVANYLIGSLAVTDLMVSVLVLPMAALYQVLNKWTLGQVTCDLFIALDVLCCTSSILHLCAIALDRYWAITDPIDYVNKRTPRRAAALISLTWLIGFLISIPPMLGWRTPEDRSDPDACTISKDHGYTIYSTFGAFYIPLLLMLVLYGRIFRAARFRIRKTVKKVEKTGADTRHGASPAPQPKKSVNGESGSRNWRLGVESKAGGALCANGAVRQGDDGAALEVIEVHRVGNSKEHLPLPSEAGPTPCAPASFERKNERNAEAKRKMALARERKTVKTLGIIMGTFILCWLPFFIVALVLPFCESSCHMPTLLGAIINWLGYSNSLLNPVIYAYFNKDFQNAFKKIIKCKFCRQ

Sequence of 5-hydroxytryptamine receptor 7 (P34969 whole entry): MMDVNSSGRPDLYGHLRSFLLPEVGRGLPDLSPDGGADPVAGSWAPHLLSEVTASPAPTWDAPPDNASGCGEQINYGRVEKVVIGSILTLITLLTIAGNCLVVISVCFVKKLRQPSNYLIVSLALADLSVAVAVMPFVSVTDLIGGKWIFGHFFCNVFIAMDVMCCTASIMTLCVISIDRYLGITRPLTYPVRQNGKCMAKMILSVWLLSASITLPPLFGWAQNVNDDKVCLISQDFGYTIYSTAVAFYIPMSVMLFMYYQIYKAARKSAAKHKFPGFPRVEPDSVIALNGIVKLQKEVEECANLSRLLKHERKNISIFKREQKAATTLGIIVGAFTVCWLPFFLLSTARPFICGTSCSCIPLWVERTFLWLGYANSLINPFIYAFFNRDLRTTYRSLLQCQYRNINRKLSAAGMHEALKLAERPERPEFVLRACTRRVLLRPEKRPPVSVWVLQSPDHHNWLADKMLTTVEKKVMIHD

Structure (SMILES)	Ki [1] [nM]	Ratio Ki (Homo sapiens)	Ki [2] [nM]
CN(C)[C@H]1CCc2c(cccc2-c2ccco2)C1	71	0.46	
CN(C)C1CCc2c(cccc2-c2ccccc2Cl)C1 (racemic)	4.2	3.3	14
CN(C)[C@@H]1CCc2c(cccc2-c2cccn2C)C1	600	0.92	
CN(C)[C@H]1CCc2c(cccc2-c2cccc3ccccc23)C1		12	
CCCN(CCC)[C@@H]1CCc2c(cccc2-c2ccccc2Cl)C1	390	0.33	130
CN(C)[C@@H]1CCc2c(cccc2-c2cc(C(F)(F)F)cc(C(F)(F)F)c2)C1	> 10000		> 10000
CN(C)[C@H]1CCc2c(cccc2-c2cccs2)C1	17	0.26	4.5
CN(C)C1CCc2c(cccc2-c2cccc(Cl)c2)C1 (racemic)	26	3.2	82
CN(C)C1CCc2c(cccc2-c2cccc(F)c2)C1 (racemic)	18	1.3	23
CN(C)[C@@H]1CCc2c(cccc2-c2ccco2)C1	2600	2.2	5600
CN(C)[C@@H]1CCc2c(cccc2-c2ccccc2)C1	5200	0.21	1100
CN(C)[C@H]1CCc2c(cccc2-c2cc(C(F)(F)F)cc(C(F)(F)F)c2)C1		2.5	2230
CCCN(CCC)[C@@H]1CCc2c(cccc2-c2ccccc2)C1	190	1.1	210
CN(C)C1CCc2c(cccc2-c2cccc(C(F)(F)F)c2)C1 (racemic)		2.9	180
CN(C)C1CCc2c(cccc2-c2ccc(F)cc2Cl)C1 (racemic)	16	2.1	33
CN(C)[C@H]1CCc2c(cccc2-c2ccc(Cl)cc2)C1	160	1.2	190
CN(C)C1CCc2c(cccc2C2CCCC2)C1 (racemic)		0.41	98
CN(C)C1CCc2c(cccc2-c2ccc(F)cc2)C1 (racemic)	117	0.26	30

Structure (SMILES)	Ki [1] [nM]	Ratio Ki (Homo sapiens)	Ki [2] [nM]
CN(C)C1CCc2c(cccc2-c2c3ccccc3cc3ccccc23)C1 (racemic)	450	3.1	1400
CCCN(CCC)[C@H]1CCc2c(cccc2-c2ccccc2)C1		0.17	
CCCN(CCC)[C@H]1CCc2c(cccc2-c2ccccc2F)C1	5.3	0.34	1.8
CCCN(CCC)[C@@H]1CCc2c(cccc2-c2ccccc2F)C1	740	0.12	92
CN(C)[C@@H]1CCc2c(cccc2-c2ccc(Cl)cc2)C1	84	0.23	19
CCCN(CCC)[C@H]1CCc2c(cccc2-c2ccccc2Cl)C1		0.11	0.64
COc1cccc(-c2cccc3c2CCC(N(C)C)C3)c1 (racemic)	28	2.6	73
CN(C)C1CCc2c(cccc2-c2cncc3ccccc23)C1 (racemic)	97	6.7	650
CN(C)[C@@H]1CCc2c(cccc2-c2ccccc2F)C1	740		
Cc1nn(C)c(C)c1-c1cccc2c1CC[C@H](N(C)C)C2		20	
CN(C)[C@H]1CCc2c(cccc2-c2cccn2C)C1	33	0.72	24
CN(C)[C@H]1CCc2c(cccc2-c2ccccc2)C1	9.5	0.66	
CN(C)C1CCc2c(cccc2-c2cc(Cl)cc(Cl)c2)C1 (racemic)	400	5.5	2200
CN(C)C1CCc2c(cccc2-c2cc(F)cc(F)c2)C1 (racemic)		1.3	230
CN(C)C1CCc2c(cccc2-c2cccc3ccccc23)C1 (racemic)	22	5.9	130
CN(C)[C@H]1CCc2c(cccc2-c2ccccc2Cl)C1		7.6	
Fc1ccccc1-c1cccc2c1CCC(N1CCCC1)C2 (racemic)		0.025	
CN(C)[C@@H]1CCc2c(cccc2-c2cccs2)C1	180	0.83	150
